In US10954252B1, “Inhibitors of human immunodeficiency virus replication” (ViiV HEALTHCARE UK (NO.5) LIMITED, priority 2017, dated 2021):

Tests used:
[1] = test system: recombinant NL4-3 virus (nef section replaced with Renilla luciferase gene) in MT-2 cells; test: HIV cell culture assay (antiviral activity, luciferase readout); assay type: cell-based; details: MT-2 cells infected for 4-5 days with recombinant NL4-3 luciferase virus
Summary of the method: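 Serially diluted compounds were present throughout a 4-5 day infection of MT-2 cells by recombinant NL4-3 whose nef region partly encodes Renilla luciferase. Antiviral activity was taken from live-cell luciferase signal, with the 50% effective concentration fitted by the exponential median effect equation.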

[2] = Compound cytotoxicity, XTT-based colorimetric assay; assay type: cell-based; details: human, uninfected MT2 cells
Summary of the method: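 XTT colorimetric read-out on day 4 gave CC50 values, using MT2 cells left uninfected but otherwise handled as in the antiviral assay.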

Cn1nc(NS(C)(=O)=O)c2c(Cl)ccc(-n3c([C@H](Cc4cc(F)cc(F)c4)NC(=O)Cn4nc(C(F)F)c5c4C(F)(F)[C@@H]4C[C@H]54)nc4cc(C(C)(C)S(C)(=O)=O)ccc4c3=O)c21 (mixture of isomers) [Example 207, N—((S)-1-(3-(4-chloro-1-methyl-3-(methylsulfonamido)-1H-indazol-7-yl)-7-(2-(methylsulfonyl)propan-2-yl)-4-oxo-3,4-dihydroquinazolin-2-yl)-2-(3,5-difluorophenyl)ethyl)-2-((3bS,4aR)-3-(difluoromethyl)-5,5-difluoro-3b,4,4a,5-tetrahydro-1H-cyclopropa[3,4]cyclopenta[1,2-c]pyrazol-1-yl)acetamide]
EC50 ([1]; Table 1a): 4.49 nM
CC50 at 4 days ([2]; Table 1a, day 4, XTT): > 1000 nM

Cn1nc(NS(C)(=O)=O)c2c(Cl)ccc(-c3cc4ccccc4nc3C(Cc3cc(F)cc(F)c3)NC(=O)Cn3nc(C(F)F)c4c3C(F)(F)[C@@H]3C[C@H]43)c21 (single isomer, unassigned) [Example 8.1]
EC50 ([1]; Table 1): 0.2 nM
CC50 at 4 days ([2]; Table 1, day 4, XTT): > 10000 nM

Cc1cccc2c(=O)n(-c3ccc(Cl)c4c(NS(C)(=O)=O)nn(C)c34)c([C@H](Cc3cc(F)cc(F)c3)NC(=O)Cn3nc(C(F)F)c4c3C(F)(F)[C@@H]3C[C@H]43)nc12 (single isomer, unassigned) [Example 97]
EC50 ([1]; Table 1a): 30.6 nM
CC50 at 4 days ([2]; Table 1a, day 4, XTT): > 1000 nM

O=C(Cn1nc(C(F)F)c2c1C(F)(F)[C@@H]1C[C@H]21)N[C@@H](Cc1cc(F)cc(F)c1)c1nc2ncccc2c(=O)n1-c1ccc(S(=O)(=O)N2CCOCC2)cc1 [Example 10.38]
EC50 ([1]; Renilla, NL43, Table 1): 0.204 nM
CC50 at 4 days ([2]; Table 1, day 4, XTT): > 10000 nM

COc1ccc2c(=O)n(-c3ccc(Cl)c4c(NS(C)(=O)=O)nn(C)c34)c([C@H](Cc3cc(F)cc(F)c3)NC(=O)Cn3ccc(C4CC4)n3)nc2n1 (mixture of isomers) [Example 58.1, N-[(1S)-1-[3-(4-chloro-3-methanesulfonamido-1-methyl-1H-indazol-7-yl)-7-methoxy-4-oxo-3H,4H-pyrido[2,3-d]pyrimidin-2-yl]-2-(3,5-difluorophenyl)ethyl]-2-(3-cyclopropyl-1H-pyrazol-1-yl)acetamide]
EC50 ([1]; Table 1a): 2.26 nM
CC50 at 4 days ([2]; Table 1a, day 4, XTT): > 1000 nM

Cc1cc(C)c2c(=O)n(-c3ccc(Cl)c4c(NS(C)(=O)=O)nn(C)c34)c([C@H](Cc3cc(F)cc(F)c3)NC(=O)Cn3nc(C(F)F)c4c3C(F)(F)[C@@H]3C[C@H]43)nc2n1 [Example 42.2, N-[(1S)-1-[3-(4-chloro-3-methanesulfonamido-1-methyl-1H-indazol-7-yl)-5,7-dimethyl-4-oxo-3H,4H-pyrido[2,3-d]pyrimidin-2-yl]-2-(3,5-difluorophenyl)ethyl]-2-[(2S,4R)-9-(difluoromethyl)-5,5-difluoro-7,8-diazatricyclo[4.3.0.0^2,4]nona-1(6),8-dien-7-yl]acetamide]
EC50 ([1]; Renilla, NL43, Table 1a): 0.016 nM
CC50 at 4 days ([2]; Table 1a, day 4, XTT): > 10000 nM

Cc1ccc2c(=O)n(-c3ccc(Cl)c4c(NS(C)(=O)=O)nn(C)c34)c(C(Cc3cc(F)cc(F)c3)NC(=O)Cn3nc(C(F)F)c4c3C(F)(F)[C@@H]3C[C@H]43)nc2n1 (mixture of isomers) [Example 41.1]
EC50 ([1]; Renilla, NL43, Table 1a): 21.2 nM
CC50 at 4 days ([2]; Table 1a, day 4, XTT): > 10000 nM

O=C(Cn1nc(C(F)F)c2c1C(F)(F)[C@@H]1C[C@H]21)N[C@@H](Cc1cc(F)cc(F)c1)c1nc2ccccc2c(=O)n1-c1ccc(Cl)cc1 [Example 124, N—((S)-1-(3-(4-chlorophenyl)-4-oxo-3,4-dihydroquinazolin-2-yl)-2-(3,5-difluorophenyl)ethyl)-2-((3bS,4aR)-3-(difluoromethyl)-5,5-difluoro-3b,4,4a,5-tetrahydro-1H-cyclopropa[3,4]cyclopenta[1,2-c]pyrazol-1-yl)acetamide]
EC50 ([1]; Renilla, NL43, Table 1a): 208 nM
CC50 at 4 days ([2]; Table 1a, day 4, XTT): > 1000 nM

CN(C)S(=O)(=O)c1ccc(-c2cc3[nH]ncc3nc2[C@H](Cc2cc(F)cc(F)c2)NC(=O)Cn2nc(C(F)F)c3c2C(F)(F)[C@@H]2C[C@H]32)cc1 [Example 26, 2-((3bS,4aR)-3-(difluoromethyl)-5,5-difluoro-3b,4,4a,5-tetrahydro-1H-cyclopropa[3,4]cyclopenta[1,2-c]pyrazol-1-yl)-N—((S)-2-(3,5-difluorophenyl)-1-(6-(4-(N,N-dimethylsulfamoyl)phenyl)-1H-pyrazolo[4,3-b]pyridin-5-yl)ethyl)acetamide]
EC50 ([1]; Renilla, NL43, Table 1a): 18.7 nM
CC50 at 4 days ([2]; Table 1a, day 4, XTT): 5010 nM

Cn1nc(NS(C)(=O)=O)c2c(Cl)ccc(-n3c([C@H](Cc4cc(F)cc(F)c4)NC(=O)Cn4nc(C(F)F)c5c4C(F)(F)[C@@H]4C[C@H]54)nc4c(C(N)=O)cccc4c3=O)c21 (single isomer, unassigned) [Example 106]
EC50 ([1]; Renilla, NL43, Table 1a): 23.8 nM
CC50 at 4 days ([2]; Table 1a, day 4, XTT): > 1000 nM

NC(=O)c1cc(-n2c([C@H](Cc3cc(F)cc(F)c3)NC(=O)Cn3nc(C(F)F)c4c3C(F)(F)[C@@H]3C[C@H]43)nc3ncccc3c2=O)ccc1F [Example 33, 5-{2-[(1S)-1-{2-[(2S,4R)-9-(difluoromethyl)-5,5-difluoro-7,8-diazatricyclo[4.3.0.0^2,4]nona-1(6),8-dien-7-yl]acetamido}-2-(3,5-difluorophenyl)ethyl]-4-oxo-3H,4H-pyrido[2,3-d]pyrimidin-3-yl}-2-fluorobenzamide]
EC50 ([1]; Renilla, NL43, Table 1a): 3.92 nM
CC50 at 4 days ([2]; Table 1a, day 4, XTT): > 10000 nM

Cn1nc(NS(C)(=O)=O)c2c(Cl)ccc(-n3c([C@H](Cc4cc(F)cc(F)c4)NC(=O)Cn4ccc(C(F)(F)F)n4)nc4cc(C(F)(F)F)ccc4c3=O)c21 (single isomer, unassigned) [Example 141]
EC50 ([1]; Table 1a): 217 nM
CC50 at 4 days ([2]; Table 1a, day 4, XTT): > 1000 nM

Cn1nc(NS(C)(=O)=O)c2c(Cl)ccc(-n3c([C@H](Cc4cc(F)cc(F)c4)NC(=O)Cn4nc(C(F)F)c5c4C(F)(F)[C@@H]4C[C@H]54)nc4ccc(Cl)c(F)c4c3=O)c21 (single isomer, unassigned) [Example 176]
EC50 ([1]; Table 1a): 0.19 nM
CC50 at 4 days ([2]; Table 1a, day 4, XTT): > 1000 nM

Cn1nc(NS(C)(=O)=O)c2c(Cl)ccc(-n3c([C@H](Cc4cc(F)cc(F)c4)NC(=O)Cn4nc5c(c4C(F)F)CCC5)nc4ncccc4c3=O)c21 (single isomer, unassigned) [Example 48.2]
EC50 ([1]; Renilla, NL43, Table 1a): 0.16 nM
CC50 at 4 days ([2]; Table 1a, day 4, XTT): > 1000 nM

Cn1nc(NS(C)(=O)=O)c2c(Cl)ccc(-n3c([C@H](Cc4cc(F)cc(F)c4)NC(=O)Cn4nc(C(F)F)c5c4C(F)(F)[C@@H]4C[C@H]54)nc4c(Cl)cccc4c3=O)c21 (single isomer, unassigned) [Example 101]
EC50 ([1]; Table 1a): 335 nM
CC50 at 4 days ([2]; Table 1a, day 4, XTT): > 1000 nM

Cn1nc(NS(C)(=O)=O)c2c(Cl)ccc(-c3cc4cc[nH]c4nc3[C@H](Cc3cc(F)cc(F)c3)NC(=O)Cn3nc(C(F)F)c4c3C(F)(F)[C@@H]3C[C@H]43)c21 (single isomer, unassigned) [Example 84]
EC50 ([1]; Renilla, NL43, Table 1a): 0.94 nM
CC50 at 4 days ([2]; Table 1a, day 4, XTT): > 10000 nM

Cc1ccc(C)c2c(=O)n(-c3ccc(Cl)c4c(NS(C)(=O)=O)nn(C)c34)c([C@H](Cc3cc(F)cc(F)c3)NC(=O)Cn3nc(C(F)F)c4c3C(F)(F)[C@@H]3C[C@H]43)nc12 (single isomer, unassigned) [Example 68]
EC50 ([1]; Renilla, NL43, Table 1a): 4.69 nM
CC50 at 4 days ([2]; Table 1a, day 4, XTT): > 1000 nM

COc1cc(OC)c2c(=O)n(-c3ccc(Cl)c4c(NS(C)(=O)=O)nn(C)c34)c([C@H](Cc3cc(F)cc(F)c3)NC(=O)Cn3nc(C(F)F)c4c3C(F)(F)[C@@H]3C[C@H]43)nc2c1 (single isomer, unassigned) [Example 181]
EC50 ([1]; Table 1a): 23.1 nM
CC50 at 4 days ([2]; Table 1a, day 4, XTT): > 1000 nM

CS(=O)(=O)Nc1nn(CC(F)F)c2c(-n3c([C@H](Cc4cc(F)cc(F)c4)NC(=O)Cn4nc(C(F)F)c5c4C(F)(F)[C@@H]4C[C@H]54)nc4ncccc4c3=O)ccc(Cl)c12 (single isomer, unassigned) [Example 44.1]
EC50 ([1]; Renilla, NL43, Table 1a): 0.049 nM
CC50 at 4 days ([2]; Table 1a, day 4, XTT): > 10000 nM

Cn1nc(NS(C)(=O)=O)c2c(Cl)ccc(-c3cc4[nH]cc(Cl)c4nc3C(Cc3cc(F)cc(F)c3)NC(=O)Cn3nc(C(F)F)c4c3C(F)(F)[C@@H]3C[C@H]43)c21 (stereo partly drawn) [Example 88]
EC50 ([1]; Renilla, NL43, Table 1a): 0.61 nM
CC50 at 4 days ([2]; Table 1a, day 4, XTT): > 10000 nM

Cn1nc(NS(C)(=O)=O)c2c(Cl)ccc(-c3c(C(Cc4cc(F)cc(F)c4)NC(=O)Cn4nc(C(F)F)c5c4C(F)(F)[C@@H]4C[C@H]54)ncc4[nH]cnc34)c21 (single isomer, unassigned) [Example 7.3]
EC50 ([1]; Table 1): 10000 nM
CC50 at 4 days ([2]; Table 1, day 4, XTT): > 10000 nM

O=C(Cn1nc(C(F)F)c2c1C(F)(F)[C@@H]1C[C@H]21)N[C@H](Cc1cc(F)cc(F)c1)c1nc2cc[nH]c2cc1-c1ccc(S(=O)(=O)N2CCOCC2)cc1 [Example 66, 2-((3bS,4aR)-3-(difluoromethyl)-5,5-difluoro-3b,4,4a,5-tetrahydro-1H-cyclopropa[3,4]cyclopenta[1,2-c]pyrazol-1-yl)-N—((R)-2-(3,5-difluorophenyl)-1-(6-(4-(morpholinosulfonyl)phenyl)-1H-pyrrolo[3,2-b]pyridin-5-yl)ethyl)acetamide]
EC50 ([1]; Renilla, NL43, Table 1a): 1540 nM
CC50 at 4 days ([2]; Table 1a, day 4, XTT): 10000 nM

Cn1nc(NS(C)(=O)=O)c2c(Cl)ccc(-n3c([C@H](Cc4cc(F)cc(F)c4)NC(=O)Cn4nc(C(F)F)c5c4C(F)(F)[C@@H]4C[C@H]54)nc4cccc(C(F)(F)F)c4c3=O)c21 (single isomer, unassigned) [Example 127]
EC50 ([1]; Table 1a): 379 nM
CC50 at 4 days ([2]; Table 1a, day 4, XTT): > 1000 nM

CC(C)c1ccc(-n2c([C@H](Cc3cc(F)cc(F)c3)NC(=O)Cc3c[nH]c4ccc(O)cc34)nc3cc(C#N)ccc3c2=O)cn1 [Example 162, (S)—N-(1-(7-cyano-3-(6-isopropylpyridin-3-yl)-4-oxo-3,4-dihydroquinazolin-2-yl)-2-(3,5-difluorophenyl)ethyl)-2-(5-hydroxy-1H-indol-3-yl)acetamide]
EC50 ([1]; Renilla, NL43, Table 1a): 6.56 nM
CC50 at 4 days ([2]; Table 1a, day 4, XTT): > 10000 nM
